Experiments:
lymph node cells = test: Proliferation of lymph node cells to MOG 35-55 peptide, [3H]thymidine incorporation; format: cell-based, C57BL/6 (B6) mice; conditions: 25 μg/ml MOG 35-55 peptide; equimolar concentrations of both compounds; vs MOG 35-55 peptide alone
[1] = tested on: Splenocytes or lymphocytes; test: Proliferation of splenocytes or lymphocytes from treated immunized mice in response to MOG 35-55 peptide; format: in vivo, B6 mice; conditions: mice treated with 20 mg/kg/day, compared with vehicle
[2] = tested on: EAE in C57BL/6 (B6) female mice; test: Clinical course of EAE, treatment begun prior to disease onset (day 10); format: in vivo, C57BL/6 (B6) mice; conditions: for mean total EAE score: vehicle control 99
Experimental: EAE was induced in C57BL/6 (B6) female mice by immunization with 200 μg of MOG 35-55 peptide in complete Freund's adjuvant containing 400 μg of Mycobacterium tuberculosis per mouse by subcutaneous injection. Pertussis toxin was administered intraperitoneally at day 0 (25 ng per mouse) and day 2 (66 ng per mouse) after immunization. […] Mice were examined for signs of EAE daily, blinded to treatment status. EAE was scored by using a 9 point scale (0, no paralysis; 1, limp tail with minimal hind limb weakness; 2, mild hind limb weakness; 3, moderate hind limb weakness; 4, moderately severe hind limb weakness; 5, severe hind limb weakness; 6, complete hind limb paralysis; 7, hind limb paralysis with mild forelimb weakness; 8, hind limb paralysis with moderate forelimb weakness; and 9, hind limb paralysis with severe forelimb weakness).

EAE in B6 mice [3] = test: Reversal of paralysis in EAE, treatment begun day 15 after onset; format: in vivo; conditions: 20 mg/kg daily from day 15
Text: EAE was induced in B6 mice as described in Example 2. Mice developed signs of EAE 10-12 days following immunization with MOG 35-55 peptide. […] Mice were scored daily for EAE, blinded to treatment status.

Mice with induced EAE [4] = test: White matter tissue damage in thoracic spinal cord of EAE mice (toluidine blue); format: in vivo; conditions: vs vehicle
Experimental: Mice with induced EAE were deeply anesthetized with isoflurane, heparinized, and perfused with 5% gluteraldehyde, and spinal cords were dissected as described in Masliah et al., Am. J. Pathol. 142:871-882, 1993. Tissue samples were post-fixed with 1% osmium. Semithin sections (0.5 μm) were stained with toluidine blue and photographed at 25× magnification. The percentage of the spinal cord showing damage was determined in the ventrolateral and dorsal thoracic cord. Photomontages (final magnification 100×) of the entire spinal cord and areas containing damaged fibers were measured using a SummaSketch 111 (Summagraphics, Fairfield, Conn.) digitizing tablet and BIOQUANT Classic 95 software (R & M Biometrics, Nashville, Tenn.). Measurements were taken of the total area (damaged and nondamaged) and the cumulative percentage area of lesions was calculated.

Mice with induced EAE [5] = test: Phosphorylated neurofilament (NF-P) immunostaining of spinal cord of EAE mice, dose groups; format: in vivo; conditions: vehicle 24%
Experimental: Mice with induced EAE were perfused with 4% paraformaldehyde and 1- to 2-mm lengths of spinal cord were processed for sectioning as described in Masliah et al. Spinal cord sections were blocked and stained with anti-phosphorylated NF, SMI312 (Sternberger Monoclonals, Lutherville, Md.). Following incubation in goat anti-mouse secondary antibody and incubation in mouse peroxidase-antiperoxidase, immunoreactivity was visualized with 0.05% diaminobenzidine tetrahydrochloride/0.01% hydrogen peroxide, examined by light microscopy and photographed and analyzed as described for assessing white matter tissue damage. Statistical significance was determined by using one-way ANOVA followed by Newman-Keuls multiple comparisons tests (WINKS 4.62 professional edition; Texasoft, Dallas, Tex.); significance was defined as p<0.05.

EAE in B6 mice [6] = test: Repair of injured axons: NF-P immunostaining at day 40, treatment from day 15; format: in vivo
Text: B6 mice were immunized with MOG 35-55 peptide as described in Example 2. […] The two treatment groups were perfused on day 40 post-immunization and sections of their spinal cords were immunostained for NF-P.

EAE in C57BL/6 mice = test: CD4 and CD11b immunostaining of spinal cord of EAE mice; format: in vivo; conditions: 20 mg/kg/day s.c. from day 15, day 34 to 40
Text: EAE was induced in C57BL/6 mice by immunization with […] as described in Example 2. […] Mice received therapy by daily subcutaneous injection. Mice were euthanized at day 34 to 40 post-immunization by perfusion with 4% paraformaldehyde and spinal cords were removed for immunohistochemical staining and quantitative analysis. Spinal cord sections were stained with anti-CD4 (lymphocyte) or anti-CD11b (monocyte/macrophage lineage) antibodies and quantified following image capture on a laser scanning confocal microscope.

CypA = CypA (Homo sapiens, UniProt P62937); conditions: see U.S. Pat. No. 6,927,208 and WO 2006/038088; cited from earlier work
Chain of CypA (P62937 whole entry, species assumed): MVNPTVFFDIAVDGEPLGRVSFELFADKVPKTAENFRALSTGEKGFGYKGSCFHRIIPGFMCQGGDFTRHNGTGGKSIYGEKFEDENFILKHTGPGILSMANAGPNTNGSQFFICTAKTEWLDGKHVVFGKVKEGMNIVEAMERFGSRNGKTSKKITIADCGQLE

[7] = 20 mg/kg, vs vehicle treated mice

Cyclo[L-alanyl-D-alanyl-N-methyl-L-leucyl-N-methyl-L-leucyl-N-methyl-L-valyl-(2S,3R,4R,6E)-3-hydroxy-4-methyl-2-methylamino-6-octenoyl-(2S)-2-aminobutanoyl-N-methyl-D-alanyl-N-ethyl-L-valyl-L-valyl-N-methyl-L-leucyl] [[D-MeAla]^3-[EtVal]^4-CsA]
proliferative capacity of lymph node cells, MOG 35-55 peptide stimulated (lymph node cells): did not significantly alter | proliferation of splenocytes or lymphocytes in response to MOG 35-55 peptide [1]: no differences in proliferation | mean total EAE score ([2]; 1 mg/kg/day from day 10): 53 | mean total EAE score ([2]; 5 mg/kg/day from day 10): 25 | onset of disease [2, 7]: significantly delayed | severity of peak disease [2, 7]: reduced | mean total EAE score ([2]; 20 mg/kg/day from day 10): 12 | recovery over the course of the experiment ([2]; all doses (1, 5, 20 mg/kg), in contrast to vehicle): completely recovered | clinical course of paralysis (EAE in B6 mice [3]): progressive improvement, eventually returning to nearly normal | mean total EAE score (EAE in B6 mice [3]; vehicle 116, p=0.0006): 75 | reduction of tissue damage, dorsal thoracic cord (Mice with induced EAE [4]; 1 mg/kg/day): 50% | reduction of tissue damage, ventrolateral thoracic cord (Mice with induced EAE [4]; 1 mg/kg/day): 40% | reduction of tissue damage, dorsal thoracic cord (Mice with induced EAE [4]; 5 mg/kg/day): 69% | reduction of tissue damage, ventrolateral thoracic cord (Mice with induced EAE [4]; 5 mg/kg/day): 76% | reduction of tissue damage, dorsal thoracic cord (Mice with induced EAE [4]; 20 mg/kg/day): 81% | reduction of tissue damage, ventrolateral thoracic cord (Mice with induced EAE [4]; 20 mg/kg/day): 86% | mean area of loss of NF-P staining, lateral/ventral thoracic spinal cord (Mice with induced EAE [5]; 1 mg/kg): 14.5% | mean area of loss of NF-P staining, lateral/ventral thoracic spinal cord (Mice with induced EAE [5]; 5 mg/kg): 3% | mean area of loss of NF-P staining, lateral/ventral thoracic spinal cord (Mice with induced EAE [5]; 20 mg/kg): 1.5% | reduced NF-P staining, share of dorsal spinal cord (EAE in B6 mice [6]; 20 mg/kg daily from day 15, read at day 40, day 15 untreated 9%, vehicle 4.7%): 1.7% | reduced NF-P staining, share of ventrolateral spinal cord (EAE in B6 mice [6]; 20 mg/kg daily from day 15, read at day 40, day 15 untreated 14%, vehicle 20%): 7% | improvement in expression of NF-P within axons (EAE in B6 mice [6]; 20 mg/kg daily, day 40 vs day 15): ≥ 50% | percentage area stained by anti-CD4, spinal cord (EAE in C57BL/6 mice; no treatment 0.86%, vehicle 0.74%, not significant): 0.61% | CD11b cells, percentage of white matter (EAE in C57BL/6 mice; no treatment 6.64%, vehicle 5.83%, p=0.05 vs vehicle): 3.94%

[EtPhe(4-CH2PO(OMe)2)]^4-CsA
apparent Ki for CypA activity compared with CsA (CypA): less than the Ki of CsA

Source: US8394763B2, “Cyclic undecapeptides and derivatives as multiple sclerosis therapies” (Oregon Health & Science University, priority 2007, dated 2013)
